Series [1] has as its system M. tuberculosis H37Rv. Kind of series: M. tuberculosis H37Rv growth inhibition. It is filed as cell-based, Mycobacterium tuberculosis. The settings on record: for MIC: Mycobacterium tuberculosis, H37RV, read-out: Mt = M. tuberculosis H37Rv, MIC, estimated visually from 2x serial dilutions.
A further series has as its system M. smegmatis. The series can be described thus: M. smegmatis growth inhibition. The series is classed as cell-based, Mycobacterium smegmatis. The settings on record: Mycolicibacterium smegmatis, read-out: Ms = M. smegmatis, IC50.
For another series, the system named is M. tuberculosis Erdman. The series can be described thus: M. tuberculosis Erdman growth inhibition. Conditions: estimated visually from 2x serial dilutions. It is filed as cell-based, Mycobacterium tuberculosis.
The subject of another series is B. subtilis. The series can be described thus: B. subtilis growth inhibition. The series is classed as cell-based. Conditions: Bacillus subtilis, read-out: Bs = B. subtilis, IC50.
Another series has as its system E. coli. Kind of series: E. coli growth inhibition. The series is classed as cell-based. The settings on record: Escherichia coli, read-out: Ec = E. coli, IC50.
The subject of a further series is S. cerevisiae. The series can be described thus: S. cerevisiae growth inhibition. The series is classed as cell-based. The settings on record: Saccharomyces cerevisiae, read-out: Sc = S. cerevisiae, IC50.
A short description of series [2]: HEK293T cell growth inhibition. The series is classed as cell-based. Conditions: human, HEK293T cells.
A short description of series [3]: HepG2 cell growth inhibition. The series is classed as cell-based. The settings on record: human, HepG2 cells.
The test system of series [4] is M. tuberculosis H37Rv. Conditions: cited from earlier work.
For a further series, the system named is Trypanosoma brucei. Kind of series: T. brucei 427.
In series [5] the test system is inner mitochondrial membrane potential, Δψ. The series can be described thus: Mitochondrial membrane potential. Conditions: PCF, oligomycin 2 μg/ml, Figure 4C. The series is classed as cell-based, Trypanosoma brucei.

SMILES strings stand for the structures. ≈ marks a conversion by molar mass, not a printed value.

`CC[C@@H](CO)NCCN[C@@H](CC)CO` [compound 1, ethambutol]: the MIC in the series with M. tuberculosis H37Rv [1] is 2 mg/L (≈ 9.79 µM). Also, the IC50 with M. smegmatis stood at 1 mg/L (≈ 4.89 µM).
`CC(C)=CCC/C(C)=C/CNCCNC1C2CC3CC(C2)CC1C3` (centres unmarked) [compound 2, SQ109]: in the series with M. tuberculosis H37Rv [1], the MIC is 0.1 to 0.5 mg/L (≈ 0.303 to 1.51 µM). In the series with M. tuberculosis H37Rv [1] (estimated visually from 2x serial dilutions), the “Mt = M. tuberculosis H37Rv, MIC” value was 0.15 mg/L. For the same compound, the “MtE = M. tuberculosis Erdman, MIC” value in the series with M. tuberculosis Erdman is 0.50 mg/L; in the series on M. tuberculosis Erdman (listed as SQ109) it was 0.1 to 0.5 mg/L. Besides, the IC50 was found to be 3.1 mg/L (≈ 9.38 µM) in the series with M. smegmatis; 7.6 mg/L (≈ 23 µM) in the series with B. subtilis; 2.8 mg/L (≈ 8.47 µM) with E. coli; 1.1 mg/L (≈ 3.33 µM) with S. cerevisiae; 0.078 ± 0.001 mg/L (≈ 0.236 µM) with Trypanosoma brucei (Trypanosoma brucei, 72 h, read-out: Tb = Trypanosoma brucei, IC50). Further, the CC50 in [2] is 1.9 mg/L (≈ 5.75 µM); in series [3] it was 1.2 mg/L (≈ 3.63 µM). Moreover, the “MIC against M. tuberculosis (previous work)” value in the series with M. tuberculosis H37Rv [4] is 0.15 mg/L (≈ 0.454 µM). Besides, the “SI = CC50(HEK293T)/IC50(Tb)” value with Trypanosoma brucei (selectivity index HEK293T vs T. brucei) stood at 24. For the same compound, in the series on Trypanosoma brucei (selectivity index HepG2 vs T. brucei), the “SI = CC50(HepG2)/IC50(Tb)” value is given as 15.
Turning to `CC[C@H]1/C=C/C=C/C[C@@H](C)[C@H](O)[C@@](C)(O)C(=O)[C@@H](C)[C@H](O)[C@@H](C)C(=O)[C@@H](C)[C@H](O)[C@@H](C)/C=C/C(=O)O[C@@H]2[C@H](C)[C@H](CC1)O[C@]1(CC[C@H](C)[C@H](C[C@@H](C)O)O1)[C@H]2C` [oligomycin], the “effect on ADP phosphorylation by T. brucei mitochondria (Δψ decrease after ADP)” value in series [5] is given as “inhibited”.

As a reminder, the MIC is the lowest concentration found to suppress growth. The term IC50 denotes the concentration needed to halve the response being measured. What is called CC50 is the concentration giving 50% cytotoxicity. High values mean lower toxicity to the cells, low ones greater toxicity to the cells.

These data come from article PMC4527605 (ACS infectious diseases, 2015).
